Experimental data as given in ChEMBL document CHEMBL1201862, “PubChem BioAssay data set” (2004).
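Where inhibition never reached the appropriate level, the endpoint shown equals the highest concentration tested. Otherwise, values were interpolated linearly from a five-concentration, 48-hour dose response in 96-well plates. At the GI50, growth is halved.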 The source made the active and inactive calls. No stated cut-off is given here; in the data, active = GI50 up to about 1.1 µM and inactive = higher.

Tests used:
Test in all cases: growth of human tumour cells (NCI), 48 h
K562 = system: K562
COLO 205 = system: COLO 205
HT-29 = system: HT-29
SK-MEL-28 = system: SK-MEL-28
OVCAR-8 = system: OVCAR-8
SNB-19 = system: SNB-19
SK-MEL-2 = system: SK-MEL-2
SNB-75 = system: SNB-75
SF-295 = system: SF-295
OVCAR-3 = system: OVCAR-3
SK-MEL-5 = system: SK-MEL-5
A549 = system: A549
M19-MEL = system: M19-MEL
RXF 393 = system: RXF 393
KM-20L2 = system: KM-20L2
OVCAR-4 = system: OVCAR-4
SW-620 = system: SW-620
OVCAR-5 = system: OVCAR-5
NCI-H23 = system: NCI-H23
KM12 = system: KM12
TK-10 = system: TK-10
HCC 2998 = system: HCC 2998
UACC-257 = system: UACC-257
CAKI-1 = system: CAKI-1
IGROV-1 = system: IGROV-1
LXFL 529 = system: LXFL 529
HL-60 = system: HL-60
HCT-116 = system: HCT-116
A498 = system: A498
Malme-3M = system: Malme-3M
CCRF-CEM = system: CCRF-CEM
XF498 = system: XF498
HOP-92 = system: HOP-92
EKVX = system: EKVX
HOP-18 = system: HOP-18
SNB-78 = system: SNB-78
SK-OV-3 = system: SK-OV-3
HOP-62 = system: HOP-62
U-251 = system: U-251
HCT-15 = system: HCT-15
M14 = system: M14
DMS-114 = system: DMS-114
LOX IMVI = system: LOX IMVI
NCI-H522 = system: NCI-H522
DLD-1 = system: DLD-1
ACHN = system: ACHN
786-0 = system: 786-0
SF-268 = system: SF-268
SF-539 = system: SF-539
DMS-273 = system: DMS-273
NCI-H460 = system: NCI-H460
UACC-62 = system: UACC-62
NCI-H226 = system: NCI-H226
UO-31 = system: UO-31
SN12C = system: SN12C
RPMI-8226 = system: RPMI-8226
SR = system: SR
MOLT-4 = system: MOLT-4
MCF7 = system: MCF7
NCI/ADR-RES = system: NCI/ADR-RES

Measured: GI50

C=CC/N=C1/N=C(CC(=O)OCC)CS1
inactive: K562 > 100 µM | COLO 205 > 100 µM | HT-29 > 100 µM | SK-MEL-28 > 100 µM | OVCAR-8 > 100 µM | SNB-19 > 100 µM | SK-MEL-2 > 100 µM | SNB-75 > 100 µM | SF-295 > 100 µM | OVCAR-3 > 100 µM | SK-MEL-5 > 100 µM | A549 > 100 µM | M19-MEL > 100 µM | RXF 393 > 100 µM | KM-20L2 > 100 µM | OVCAR-4 > 100 µM | SW-620 > 100 µM | OVCAR-5 > 100 µM | NCI-H23 > 100 µM | KM12 > 100 µM | TK-10 > 100 µM | HCC 2998 > 100 µM | UACC-257 > 100 µM | CAKI-1 > 100 µM | IGROV-1 > 100 µM | LXFL 529 > 100 µM | HL-60 > 100 µM | HCT-116 > 100 µM | A498 > 100 µM | Malme-3M > 100 µM | CCRF-CEM > 100 µM | XF498 > 100 µM | HOP-92 > 100 µM | EKVX > 100 µM | HOP-18 > 100 µM | SNB-78 > 100 µM | SK-OV-3 > 100 µM | HOP-62 > 100 µM | U-251 > 100 µM | M14 > 100 µM | DMS-114 > 100 µM | LOX IMVI > 100 µM | NCI-H522 > 100 µM | DLD-1 > 100 µM | ACHN > 100 µM | 786-0 > 100 µM | SF-268 > 100 µM | SF-539 > 100 µM | DMS-273 > 100 µM | NCI-H460 > 100 µM | UACC-62 > 100 µM | NCI-H226 > 100 µM | UO-31 > 100 µM | SN12C > 100 µM
> 100 µM: HCT-15

CC1CCN(c2cc(-c3cc4ccccc4o3)oc(=O)c2C#N)CC1
> 100 µM: HCT-15
inactive: RPMI-8226 > 100 µM | K562 > 100 µM | COLO 205 > 100 µM | HT-29 > 100 µM | SK-MEL-28 > 100 µM | OVCAR-8 > 100 µM | SNB-19 > 100 µM | SK-MEL-2 > 100 µM | SNB-75 > 100 µM | SF-295 68.9 µM | SK-MEL-5 > 100 µM | A549 > 100 µM | RXF 393 45.7 µM | KM-20L2 > 100 µM | OVCAR-4 18.8 µM | SW-620 > 100 µM | OVCAR-5 > 100 µM | SR > 100 µM | NCI-H23 > 100 µM | KM12 > 100 µM | TK-10 > 100 µM | HCC 2998 > 100 µM | UACC-257 > 100 µM | CAKI-1 19.9 µM | IGROV-1 > 100 µM | LXFL 529 > 100 µM | HL-60 65.8 µM | HCT-116 > 100 µM | A498 > 100 µM | Malme-3M > 100 µM | CCRF-CEM > 100 µM | XF498 > 100 µM | HOP-92 5.9 µM | EKVX > 100 µM | HOP-18 > 100 µM | SNB-78 > 10 µM | U-251 > 100 µM | M14 > 100 µM | DMS-114 > 100 µM | LOX IMVI > 100 µM | DLD-1 > 100 µM | ACHN > 100 µM | SF-268 > 100 µM | SF-539 89.1 µM | DMS-273 > 100 µM | NCI-H460 > 100 µM | NCI-H226 > 100 µM | MOLT-4 > 100 µM | UO-31 > 100 µM | SN12C > 100 µM

O=[N+]([O-])c1cc(C(F)(F)F)cc2c1SC1=Nc3ccccc3CN12
inactive: RPMI-8226 > 100 µM | K562 > 100 µM | COLO 205 > 100 µM | HT-29 > 100 µM | SK-MEL-28 > 100 µM | OVCAR-8 > 100 µM | SNB-19 > 100 µM | SK-MEL-2 > 100 µM | SNB-75 > 100 µM | SF-295 > 100 µM | OVCAR-3 > 100 µM | SK-MEL-5 > 100 µM | A549 > 100 µM | M19-MEL > 100 µM | RXF 393 > 100 µM | MCF7 > 100 µM | KM-20L2 > 100 µM | OVCAR-4 > 100 µM | SW-620 > 100 µM | OVCAR-5 > 100 µM | NCI-H23 > 100 µM | KM12 > 100 µM | HCC 2998 > 100 µM | UACC-257 > 100 µM | CAKI-1 > 100 µM | IGROV-1 > 100 µM | HL-60 > 100 µM | HCT-116 > 100 µM | A498 > 100 µM | Malme-3M > 100 µM | CCRF-CEM > 100 µM | XF498 > 100 µM | HOP-92 > 100 µM | EKVX > 100 µM | HOP-18 > 100 µM | SNB-78 > 100 µM | SK-OV-3 > 100 µM | HOP-62 > 100 µM | U-251 > 100 µM | DMS-114 > 100 µM | LOX IMVI > 100 µM | NCI-H522 > 100 µM | DLD-1 > 100 µM | SF-268 > 100 µM | SF-539 > 100 µM | DMS-273 > 100 µM | NCI-H460 > 100 µM | UACC-62 > 100 µM | NCI-H226 > 100 µM | MOLT-4 > 100 µM | NCI/ADR-RES > 100 µM | UO-31 > 100 µM | SN12C > 100 µM
> 100 µM: HCT-15
